Measured values from US9987242B2, “Treatment of Levodopa-induced Dyskinesias” (NORTHWESTERN UNIVERSITY, priority 2015, dated 2018).
“Also recorded” adds a separate entry of the source.

Tests used:
[1] = system: dSPN glutamatergic synapses; assay: Spike-timing-dependent LTD induction (post-pre pairing) in dSPNs, ex vivo corticostriatal slices, perforated-patch or whole-cell recording; type: cell-based, mice
Excerpt: Male C57Bl/6 and FVB mice expressing tdTomato or eGFP under control of either the Drd1 or Drd2 receptor regulatory elements were used. All the mice used for the study were hemizygous for these transgenes. For some experiments, D1-tdTomato BAC mice were crossed with a transgenic line expressing Cre recombinase under control of the ChAT promoter. All mice were 8-10 weeks of age before stereotaxic surgery. Animal use procedures were reviewed and approved by the Northwestern Institutional Animal Care and Use Committee.
Slices were then transferred to a holding chamber containing aCSF. After an incubation period at 34° C. for 30 min, the slices were then kept in the holding chamber at the room temperature for another 30 min before use.
Individual slices were transferred to a recording chamber and were continuously perfused (2-3 ml min^−1) with aCSF for the duration of the experiment. Experiments were performed in the dorsolateral striatum at elevated temperature (30-31° C.).
All the recordings were made using a MultiClamp 700 A amplifier, and signals were filtered at 2 kHz and digitized at 10 kHz. Data were excluded when the series resistance changed >20% over the time course of the experiment. […] Capacitance current was continuously monitored during perforation by applying a 5-10 mV pulse from a holding potential of −70 mV. The amplifier bridge circuit was adjusted to compensate for series resistance and continuously monitored during recordings. Electrode capacitance was also compensated. Data were excluded when the input resistance (Ri) changed >20% over the time course of the experiment.
Data analysis was conducted with Igor Pro 6 (Wavemetrics, Lake Oswego, Oreg.) and Clampfit 9 (Molecular Devices). EPSP amplitude was calculated from 50-60 sweeps immediately before the start of induction and 20-30 min after the end of induction. The change in EPSP amplitude was calculated by averaging EPSP values after the induction and normalized to the average baseline EPSP amplitude. Compiled data were expressed as mean±s.e.m. Statistical tests were performed using Excel (Microsoft, Redmond, Wash.) and SigmaStat (Systat, San Jose, Calif.). Non-parametric Mann-Whitney or Wilcoxon tests were used to assess the experiment results, using a probability threshold of 0.05.
To determine if M4Rs were modulating synaptic plasticity, a spike-timing-dependent plasticity (STDP) paradigm was used. […] Once identified, neurons were monitored and controlled with perforated-patch recording to preserve intracellular signaling mechanisms and to allow stable, long-term monitoring of synaptic strength (FIG. 1A).
Synaptic plasticity was induced by pairing local stimulation of glutamatergic afferent fibers with postsynaptic spikes evoked by short bursts of intracellular current injection that were repeated at 5 Hz (FIGS. 1B, 4A).

[2] = system: ChIs expressing DREADD hM3D(q); assay: Discharge rate of DREADD hM3D(q)-expressing cholinergic interneurons, cell-attached patches in slices; type: cell-based, mice
Excerpt: To determine the importance of endogenous cholinergic signaling in regulating synaptic plasticity, the discharge rate of ChIs was elevated using a Cre-dependent DREADD (Alexander et al., 2009; Armbruster et al., 2007; Ferguson et al., 2011; Kozorovitskiy et al., 2012; herein incorporated by reference in their entireties). Briefly, bi-transgenic mice expressing tdTomato in dSPNs and Cre-recombinase under control of the choline acetyltransferase (ChAT) promoter received striatal stereotaxic injections of an adeno-associated virus (AAV; serotype 2/8) containing the hM3D(q) expression construct (the University of North Carolina Vector Core). Mice were allowed to recover for 5-6 weeks before recordings. To activate the DREADD expressing ChIs, clozapine-N-oxide (CNO) was bath applied to ex vivo brain slice preparations.
To address the possibility that in an ex vivo slice preparation at 30-31° C., spontaneous ChI activity is low and could lead to effective enzymatic degradation of ACh near its release site and weak M4R activation, the ACh esterase inhibitor physostigmine (10 μM) was co-applied with the M4R PAM. […] Another way to compensate for lower than normal cholinergic signaling in ex vivo slices is to use designer receptors exclusively activated by designer drugs (DREADDs) to selectively increase ChI discharge rate (Alexander et al., 2009; Armbruster et al., 2007; herein incorporated by reference in their entireties). To this end, bi-transgenic mice expressing tdTomato in dSPNs and Cre-recombinase under control of the choline acetyltransferase (ChAT) promoter received striatal injections of an adeno-associated virus (AAV) containing an hM3D(q) expression construct having an upstream foxed STOP codon; this STOP codon is effectively excised by Cre-recombinase leading to DREADD expression (Ferguson et al., 2011; Kozorovitskiy et al., 2012; herein incorporated by reference in their entireties) (FIG. 2A). […]

[3] = system: iSPN synapses; assay: Pre-post pairing protocol in iSPNs from 6-OHDA lesioned, L-DOPA treated mice; conditions: 6-OHDA lesioned mice shortly after L-DOPA treatment
[4] = system: dSPN glutamatergic synapses; assay: Spike-timing-dependent LTP induction (pre-post pairing) in dSPNs, ex vivo slices; type: cell-based, mice
[5] = system: forelimb use asymmetry; assay: Forelimb-use asymmetry test (cylinder test) in 6-OHDA lesioned mice; type: in vivo; conditions: for forelimb use asymmetry: n=9
Protocol: (§1) After LID induction, mice were treated with either L-DOPA or L-DOPA and VU152100 (20-120 mg/kg, i.p.) on days 6-8; VU152100 is an M4R PAM with improved pharmacokinetic properties than VU10010.

[6] = system: L-DOPA-induced AIMs; assay: Abnormal involuntary movement (AIM) scoring in unilateral 6-OHDA lesioned mice with L-DOPA-induced dyskinesia; type: in vivo
Protocol: as §1

[7] = system: phosphorylated ERK1/2 and phosphorylated histone 3; assay: Cells immunoreactive for pERK1/2 and pH3 in the dorsolateral striatum of LID mice; type: in vivo
Protocol: as §1

[8] = system: NMDAR-mediated currents in dSPNs; assay: NMDAR-mediated uEPSCs and EPSCs in dSPNs, whole-cell voltage clamp; type: cell-based, mice; conditions: muscarine 3 μM; local electrical stimulation
Protocol: For whole-cell voltage clamp recordings, patch pipettes were loaded with internal recording solution containing (mM): 120 CsMeSO3, 15 CsCl, 8 NaCl, 10 HEPES, 0.2 EGTA, 10 tetraethylammonium Chloride (TEA-Cl), 5 QX-314, 2 Mg-ATP, 0.3 Na-GTP; pH was adjusted to 7.25 with CsOH and osmolarity to ˜305 mOsm l^−1. All the recordings were made using a MultiClamp 700 A amplifier, and signals were filtered at 2 kHz and digitized at 10 kHz. Data were excluded when the series resistance changed >20% over the time course of the experiment. For perforated patch recordings, the internal recording solution comprised (in mM): 125 KMeSO4, 14 KCl, 2 MgCl2, 0.2 EGTA, 10 HEPES; pH was adjusted to 7.25 with NaOH and osmolarity to ˜280 mOsm l^−1. Amphotericin B was used to achieve electrical access through the perforated-patch method (Shen et al., 2007; 2008; herein incorporated by reference in their entireties). Capacitance current was continuously monitored during perforation by applying a 5-10 mV pulse from a holding potential of −70 mV. The amplifier bridge circuit was adjusted to compensate for series resistance and continuously monitored during recordings. Electrode capacitance was also compensated. Data were excluded when the input resistance (Ri) changed >20% over the time course of the experiment.
Glutamate uncaging was achieved using a Verdi/Mira (Coherent Laser Group, Santa Clara, Calif.) (Plotkin et al., 2014). 5 mM MNI-glutamate was superfused over the slice at 0.4 ml/hr using a syring pump and multi-barreled perfusion manifold (Cell MicroControls, Norfolk, Va.). The perfusion solution was (in mM): 124 NaCl, 3 KCl, 2 CaCl2, 1 NaH2PO4, 26 HEPES and 16.66 glucose, and also contained (in μM): 3 muscarine, 10 serine, 10 NBQX and 10 gabazine, plus or minus: 3 SKF81297 and/or 5 VU10010). Glutamate was uncaged adjacent to individual spines using 1 ms pulses of 720-725 nm light typically 10-20 mW in power at the sample plane. Photolysis power was tuned via a third Pockels cell modulator (Con Optics, Danbury, Conn.) to achieve uEPSCs≤5 pA. uEPSC amplitudes were measured from averaged (3-5 repetitions) traces. All uncaging experiments were performed in 0 mM Mg^2+-containing solutions.
To determine the situation in dSPNs, the effect of muscarine and VU10010 on NMDAR-mediated EPSCs evoked by uncaging glutamate on spine heads (uEPSCs) was examined in the presence of SKF81297.

[9] = VU152100 co-administered with L-DOPA vs L-DOPA

CCN1CCCC1CNC(=O)c1cc(S(N)(=O)=O)ccc1OC (stereo not drawn) [sulpiride]
LTD induction in dSPNs ([1]; sulpiride 10 μM with physostigmine 10 μM and VU10010 5 μM): LTD was induced

C[N+]1([O-])CCN(C2=Nc3cc(Cl)ccc3Nc3ccccc32)CC1 [CNO, clozapine-N-oxide]
ChI discharge rate, median ([2]; CNO 10 μM bath perfusion, n=5): 6.7 Hz
ChI discharge rate, range ([2]; CNO 10 μM bath perfusion, n=5): 4.2-7.8 Hz
ChI spontaneous discharge rate (in words) ([2]; CNO 10 μM, cell-attached patches): increased ChI spontaneous discharge rate
LTD induction in adjacent dSPNs ([1]; CNO 10 μM, elevated ChI activity via DREADD hM3D(q)): led to a robust LTD

Cc1cccc(C#Cc2ccccc2)n1 [MPEP]
LTD induction in dSPNs ([1]; MPEP 10 μM with CCG203769): prevented the LTD induction; also recorded: LTD was disrupted

N[C@@H](Cc1ccc(O)c(O)c1)C(=O)O [L-DOPA, L-3,4-dihydroxyphenylalanine]
plasticity in iSPNs with pre-post pairing protocol [3]: induced an LTD
STDP LTP induction in dSPNs ([4]; 6-OHDA lesioned mice, slices one hour after last L-DOPA injection): led to a robust LTP; also recorded: LTP was recovered
forelimb use asymmetry ([5]; L-DOPA alone): 47.98±2.41

N#CC(=C(/N)Sc1ccccc1N)/C(C#N)=C(\N)Sc1ccccc1N [U0126]
STDP LTP induction in dSPNs ([4]; U0126 10 μM, dyskinetic (LID) mice): prevented LTP induction; also recorded: LTP was disrupted
STDP LTP induction in dSPNs ([4]; U0126 10 μM, naive mice): disrupted STDP LTP; also recorded: LTP induction was disrupted

Cc1c(C(=O)NN2CCCCC2)nn(-c2ccc(Cl)cc2Cl)c1-c1ccc(I)cc1 [AM251]
LTD induction in dSPNs ([1]; AM251 2 μM with CNO): dependent upon endocannabinoid (eCB) CB 1 receptors; also recorded: LTD was blunted

CCCCn1c(=O)sn(CC)c1=O [CCG203769]
LTD induction in dSPNs ([1]; CCG203769 10 μM intracellular, without VU10010): enhanced induction of LTD; also recorded: promoted the induction of LTD
LTD induction in dSPNs ([1]; CCG203769 with VU+PHY+MT3 (M4R antagonized)): antagonizing M4Rs had no effect on dSPN LTD
LTD induction in dSPNs ([1]; CCG203769 with VU+PHY+MT3 (M4R antagonized), listed as CCG): enhanced LTD induction

COc1ccc(CNC(=O)c2sc3nc(C)cc(C)c3c2N)cc1 [VU152100]
cumulative AIM scores ([6]; VU152100 60 mg/kg systemic, with L-DOPA): significantly reduced cumulative AIM scores
anti-dyskinetic effect on doubling the dose ([6]; VU152100 120 mg/kg, with L-DOPA): did not increase the anti-dyskinetic effect
AIM scores, dose relation ([6]; VU152100 20, 60, 120 mg/kg): dose-dependent effect
L-DOPA-induced AIM scores ([6]; VU152100 20-120 mg/kg i.p. with L-DOPA, days 6-8): significantly attenuated
forelimb use asymmetry ([5]; L-DOPA+VU152100, p>0.05 vs L-DOPA): 38.6±3.04
effect on anti-parkinsonian action of L-DOPA (forelimb use asymmetry) ([5]; VU152100 co-administered with L-DOPA): did not occur at the expense of the anti-parkinsonian action of L-DOPA
level of phosphorylated ERK (pERK) ([7]; VU0152100 60 mg kg-1): reduced the levels of LID biomarkers
level of phosphorylated histone3 (pH3) ([7]; VU0152100 60 mg kg-1): reduced the levels of LID biomarkers
number of cells immunoreactive for phosphorylated ERK1/2 (pERK1/2) [7, 9]: reduced the number of cells; also recorded: reduced expression
number of cells immunoreactive for phosphorylated histone 3 (pH3) [7, 9]: reduced the number of cells; also recorded: reduced expression

C[C@@H]1O[C@H](C[N+](C)(C)C)C[C@H]1O [muscarine]
amplitudes of NMDAR-mediated EPSCs [8]: reduced the amplitudes

N[C@@H](CCCP(=O)(O)O)C(=O)O [APV]
LTD induction in dSPNs ([1]; APV 50 μM with VU10010 5 μM): LTD was inducible
